Counter-ions that a name gives are not always drawn. Like-named read-outs stand apart in the source and are kept apart here.
What was measured:
[1] = tested on: collagen-induced aggregation (platelet-rich plasma); test: Born test, rat ex vivo, collagen-induced aggregation; type: in vivo; details: 1 hour after administration, optical density
Procedure: (b) Born test, rat ex vivo, collagen-induced aggregation
The following forms were tested:
The test compound was administered by esophageal tube in the form of an aqueous solution or, in the case of compound A in the form of a tylose suspension, to conscious rats weighing about 450 g. After 1 hour, blood was taken from the abdominal aorta of the animals (which had previously been anesthetized with pentobarbital sodium). The platelet-rich plasma obtained by centrifuging was pooled. The controls were three animals which had not been given any of the test compound. The method of taking blood and preparing the plasma was the same for both groups. The anticoagulant used was 2% sodium citrate in a volume ratio of 1+9.
All the testing was carried out one hour after the administration of the test compound.

[2] = tested on: rat; test: edema test (antiphlogistic effect); type: in vivo; details: for powerful antiphlogistic effect, dose range: p.o. in the rat (edema test)
[3] = tested on: stomach of the rat; test: ulcerogenic effect on the stomach of the rat; type: in vivo
[4] = Determination of acute toxicity; type: in vivo; details: mouse, in vivo; oral, mice; printed ">>1000 mg/kg"
Procedure: (§1) (d) Determination of acute toxicity
(§2) The acute toxicity was determined after oral administration to male and female mice. The compounds were administered as a suspension in tylose.
(§3) The following table indicates the number of animals which died within 1, 7 and 14 days after receiving the doses stated: […]

[5] = tested on: mice; test: Determination of acute toxicity; type: in vivo
Procedure: as §1, §2, §3

[6] = tested on: collagen-induced thrombocyte aggregation; test: Born test, collagen-induced aggregation (platelet-rich plasma); type: cell-based, human (healthy test subjects); details: for inhibition at 10 µM: 10^-5 Mol/l; for inhibition at 1 µM: 10^-6 Mol/l
Procedure: The compounds were tested for their inhibiting effects in blood platelet aggregation induced by collagen and their effect of prolonging the bleeding time in mice. The compounds were also tested for their acute toxicity.
(a) Born test, collagen-induced aggregation
The thrombocyte aggregation was measured on platelet-rich plasma from healthy test subjects using the method of BORN and CROSS (J. Physiol. 170, 397 [1964]). The decrease in optical density of the platelet suspensions after the addition of collagen was measured photometrically and recorded. The rate of aggregation was deduced from the angle of inclination of the density curve. The point on the curve at which there is maximum light transmittance was used to calculate the "optical density". The quantity of collagen was selected so as to obtain an irreversible control curve.
The figures given refer to the optical density and indicate the percentage change in light transmittance (=% attenuation of aggregation) under the effect of the test substance, compared with the control.
Standard commercial collagen made by Hormon-Chemie of Munich was used.

[7] = tested on: bleeding time in mice; test: Determination of the bleeding time in mice (method of DUKE); type: in vivo, mouse (NMRI Biberach)
Procedure: (c) Determination of the bleeding time in mice
The bleeding time was measured on unanesthetized female mice weighing from 20 to 25 g by the method of DUKE (J. Amer. Med. Assoc.) 15, 1187, 1910). About 0.5 mm of the tip of the animals' tail was cut off, and the blood escaping was carefully wiped away with a strip of filter paper at 30 second intervals. The number of drops of blood thus obtained provided a measurement of the bleeding time. The normal bleeding time in mice is 4.1 minutes on average.
Strain of animals: NMRI Biberach
Number of animals per test: 5
The test compound was administered by esophageal tube one hour before the measurement.

[8] = 250 mg/kg oral, of 10 animals (A) or 5 animals (B, Y, Z)
[9] = 1000 mg/kg oral, of 10 animals (A) or 5 animals (B)
[10] = Homo sapiens, optical density, read-out: BORN test [= % reduction in aggregation]
[11] = Homo sapiens, Table I, read-out: IC50 (50% reduction in aggregation)
[12] = Homo sapiens, as stated in text on Table I, read-out: concentration giving a 50% reduction in aggregation

SMILES: CN1C(C(=O)Nc2cncc(Cl)n2)=C(O)c2ccccc2S1(=O)=O [C, Sodium salt of N-(6-chloro-pyrazin-2-yl)-4-hydroxy-2-methyl-2H-1,2-benzothiazine-3-carboxamide-1,1-dioxide]
- percentage inhibition of aggregation ([1]; 0.0125 mg/kg p.o.): 0%
- percentage inhibition of aggregation ([1]; 0.025 mg/kg p.o.): 32%
- percentage inhibition of aggregation ([1]; 0.05 mg/kg p.o.): 96%
- percentage inhibition of aggregation ([1]; 0.125 mg/kg p.o.): 100%
- percentage inhibition of aggregation ([1]; 0.25 mg/kg p.o.): 100%
- percentage inhibition of aggregation ([1]; 0.5 mg/kg p.o.): 100%

SMILES: CN1C(C(=O)Nc2cncc(Cl)n2)=C(O)c2ccccc2S1(=O)=O [Compound A, N-(6-Chloro-pyrazin-2-yl)-4-hydroxy-2-methyl-2H-1,2-benzothiazine-3-carboxamide-1,1-dioxide]
- ED35 ([2]; Rattus norvegicus, po, edema test): > 200 mg/kg
- antiphlogistic effect ([2]; edema test): no antiphlogistic effect
- ulcerogenic effect [3]: no ulcerogenic effect up to 100 mg/kg
- percentage inhibition of aggregation ([1]; 0.125 mg/kg p.o.): 14%
- inhibition at 0.25 mg/kg ([1]; Rattus norvegicus, po, 1 h, 0.25 mg/kg p.o., read-out: percentage inhibition of aggregation): 93%
- inhibition at 0.5 mg/kg ([1]; Rattus norvegicus, po, 1 h, 0.5 mg/kg p.o., read-out: percentage inhibition of aggregation): 86%
- LD50 at 336 h [4]: > 1000 mg/kg
- Animals which died during the observation period, 1 day [5, 8]: 0
- Animals which died during the observation period, 7 days [5, 8]: 0
- Animals which died during the observation period, 14 days [5, 8]: 0
- Animals which died during the observation period, 1 day [5, 9]: 0
- Animals which died during the observation period, 7 days [5, 9]: 0
- Animals which died during the observation period, 14 days [5, 9]: 0
- inhibition at 10 µM [6, 10]: 95%
- inhibition at 1 µM [6, 10]: 71%
- inhibition at 0.1 µM ([6]; Homo sapiens, 10^-7 Mol/l, optical density, read-out: BORN test [= % reduction in aggregation]): 6%
- IC50 [6, 11]: 470 nM
- concentration leading to a 50% reduction compared with prior art compounds Y and Z ([6]; comparison with Y and Z): about one tenth power lower

SMILES: CN1C(C(=O)Nc2cncc(Cl)n2)=C(O)c2ccccc2S1(=O)=O [Compound B, Potassium salt of N-(6-chloro-pyrazin-2-yl)-4-hydroxy-2-methyl-2H-1,2-benzothiazine-3-carboxamide-1,1-dioxide]
- percentage inhibition of aggregation ([1]; 0.0125 mg/kg p.o.): 26%
- percentage inhibition of aggregation ([1]; 0.025 mg/kg p.o.): 86%
- percentage inhibition of aggregation ([1]; 0.05 mg/kg p.o.): 100%
- Animals which died during the observation period, 1 day [5, 8]: 0
- Animals which died during the observation period, 7 days [5, 8]: 0
- Animals which died during the observation period, 14 days [5, 8]: 0
- Animals which died during the observation period, 1 day [5, 9]: 0
- Animals which died during the observation period, 7 days [5, 9]: 1
- Animals which died during the observation period, 14 days [5, 9]: 1

SMILES: CN1C(C(=O)Nc2cncc(Cl)n2)=C(O)c2ccccc2S1(=O)=O [D, Tetramethylammonium salt of N-(6-chloro-pyrazin-2-yl)-4-hydroxy-2-methyl-2H-1,2-benzothiazine-3-carboxamide-1,1-dioxide]
- percentage inhibition of aggregation ([1]; 0.0125 mg/kg p.o.): 27%
- percentage inhibition of aggregation ([1]; 0.025 mg/kg p.o.): 20%
- percentage inhibition of aggregation ([1]; 0.05 mg/kg p.o.): 97%

SMILES: CN1C(C(=O)Nc2cncc(Cl)n2)=C(O)c2ccccc2S1(=O)=O [E, Ethanolamine salt of N-(6-chloropyrazin-2-yl)-4-hydroxy-2-methyl-2H-1,2-benzothiazine-3-carboxamide-1,1-dioxide]
- percentage inhibition of aggregation ([1]; 0.0125 mg/kg p.o.): 10%
- percentage inhibition of aggregation ([1]; 0.025 mg/kg p.o.): 53%
- percentage inhibition of aggregation ([1]; 0.05 mg/kg p.o.): 87%

SMILES: CN1C(C(=O)Nc2cncc(Cl)n2)=C(O)c2ccccc2S1(=O)=O [F, Calcium salt of N-(6-chloro-pyrazin-2-yl)-4-hydroxy-2-methyl-2H-1,2-benzothiazine-3-carboxamide-1,1-dioxide]
- percentage inhibition of aggregation ([1]; 0.0125 mg/kg p.o.): 27%
- percentage inhibition of aggregation ([1]; 0.025 mg/kg p.o.): 64%
- percentage inhibition of aggregation ([1]; 0.05 mg/kg p.o.): 77%

SMILES: CN1C(C(=O)Nc2cncc(Cl)n2)=C(O)c2ccccc2S1(=O)=O [G, Ammonium salt of N-(6-chloro-pyrazin-2-yl)-4-hydroxy-2-methyl-2H-1,2-benzothiazine-3-carboxamide-1,1-dioxide]
- percentage inhibition of aggregation ([1]; 0.0125 mg/kg p.o.): 7%
- percentage inhibition of aggregation ([1]; 0.025 mg/kg p.o.): 36%
- percentage inhibition of aggregation ([1]; 0.05 mg/kg p.o.): 92%

SMILES: CN1C(C(=O)Nc2ccccn2)=C(O)c2ccccc2S1(=O)=O [Y, 4-hydroxy-2-methyl-N-(2-pyridyl)-2H-1,2-benzothiazine-3-carboxamide-1,1-dioxide]
- powerful antiphlogistic effect, dose range [2]: 1 to 5 mg/kg
- ulcerogenic effect [3]: strong ulcerogenic effect
- side effects ([7]; 10 mg/kg): already show side effects
- Animals which died during the observation period, 1 day [5, 8]: 0
- Animals which died during the observation period, 7 days [5, 8]: 3
- Animals which died during the observation period, 14 days [5, 8]: 3
- inhibition at 10 µM [6, 10]: 85%
- inhibition at 1 µM [6, 10]: 39%
- IC50 [6, 11]: 2000 nM
- IC50 [6, 12]: 2000 nM

SMILES: CN1C(C(=O)Nc2cnccn2)=C(O)c2ccccc2S1(=O)=O [Z, 4-hydroxy-2-methyl-N-(2-pyrazinyl)-2H-1,2-benzothiazine-3-carboxamide-1,1-dioxide]
- powerful antiphlogistic effect, dose range [2]: 1 to 5 mg/kg
- ulcerogenic effect [3]: strong ulcerogenic effect
- Prolongation of bleeding time ([7]; 10 mg/kg by esophageal tube, one hour before the measurement): +62%
- Animals which died during the observation period, 1 day [5, 8]: 1
- Animals which died during the observation period, 7 days [5, 8]: 4
- Animals which died during the observation period, 14 days [5, 8]: 4
- inhibition at 10 µM [6, 10]: 15%
- IC50 [6, 11]: > 10000 nM
- IC50 [6, 12]: > 10000 nM

Reference: US4533664A, “Antithrombotic N-(6-chloro-pyrazin-2-yl)-4-Hydroxy-2H-1,2-benzothiazine-3-carboxamide-1 ,1-dioxide derivatives, composition, and method of use” (Dr. Karl Thomae Gesellschaft mit beschrankter Haftung, priority 1982, dated 1985)
